Patent US10053497B2, “Therapeutic epitopes and uses thereof” (OXFORD UNIVERSITY INNOVATION LIMITED, priority 2002, dated 2018)

What was measured:
Format in all cases: cell-based, human
PBMC of coeliac patients = assay: ELISpot of the 652 peptides in patients challenged with wheat or rye; details: for Dominance among individual peptide responses, rye: rye challenge; for Dominance among individual peptide responses, wheat: wheat challenge
Description: Dominance depends on wheat or rye. For wheat, dominant peptides include peptide numbers 89, 90 and 91 (referring to sequence numbers in Table 23) (SEQ ID NO: 195, SEQ ID NO:196 and SEQ ID NO:197 respectively). For rye, dominant peptides include peptide numbers 368, 369, 370, 371, and 372 (referring to sequence numbers in Table 23) (SEQ ID NO:474, SEQ ID NO:475, SEQ ID NO:476, SEQ ID NO:477 and SEQ ID NO:478 respectively).

[1] = tested on: PBMC from coeliac disease subjects; assay: IFNγ ELISPOT with PBMC of coeliac disease subjects after bread/gluten challenge (agonist bioactivity of peptides); details: for Bioactivity % of unmodified A-gliadin 57-73 QE65 (G) / % agonist. (agonist activity compared to A-gliadin 57-73 QE65): 50 mcg/ml; for Bioactivity % of unmodified A-gliadin 57-73 QE65 (G): PBMC from 8 subjects, blank 7.1%; for % agonist. (agonist activity compared to A-gliadin 57-73 QE65): Table 9
[2] = tested on: PBMC from coeliac volunteers; assay: Antagonism of A-gliadin 57-73 QE65 IFNgamma ELISPOT response (simultaneous addition of peptide); details: variant 50 μg/ml plus A-gliadin 57-73 QE65 10 μg/ml; n=5
Description: Simultaneous addition of peptide (50 μg/ml) or buffer and A-gliadin 57-73 QE65 (SEQ ID NO:2) (10 μg/ml) in IFNgamma ELISPOT using PBMC from coeliac volunteers 6 days after commencing 3 day gluten challenge (n=5). Results were expressed as response with peptide plus A-G 57-73 QE65 (mean of duplicates) as % response with buffer plus A-G 57-73 QE65 (mean of 20 replicates). (See Table 9).

[3] = tested on: PBMC of HLA-DQ2+ coeliac subjects; assay: IFNγ ELISpot, comprehensive gliadin epitope mapping in HLA-DQ2+ coeliac subjects after gluten challenge; details: for Mean (SEM) bioactivity of deamidated peptides as % of P04722 E85: 20 μg/ml, HLA-DQ2 coeliac subjects C01-5; for IFNg ELISpot response compared to P04722 77-93 QE85 (SEQ ID NO: 27): mean (SEM): peptides grouped by structure
How it was run: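 PBMC (2-8×10^5/well) from HLA-DQ2+ coeliac subjects on gluten-free diet were taken before and on day 6/7 after 3-day bread challenge. They were incubated overnight with 20mer peptides or pools (20 μg/ml each), ± tTG deamidation (tTG 64 μg/ml in wells), in RPMI/10% human AB serum. Net sfc/million minus blank; single-peptide responses as % of P04722 77-93 QE85.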

[4] = A-gliadin 57-73 with the named amino acid at position 65, 50 μg/ml, 3 subjects, day 6

| Compound | Bioactivity % of unmodified A-gliadin 57-73 QE65 (G) [1] [%] | Mean IFNγ ELISPOT response relative to the immunodominant epitope (Glu65) [1, 4] [%] | % agonist. (agonist activity compared to A-gliadin 57-73 QE65) [1] [%] | % Inhibit. of A-gliadin 57-73 QE65 interferon gamma ELISPOT response [2] [%] | Mean (SEM) bioactivity of deamidated peptides as % of P04722 E85 [3] | also measured |
| --- | --- | --- | --- | --- | --- | --- |
| 372: Table 23 20mer, SEQ ID NO:478 (PQQQFIQPQQPQQTYPQRPQ) [Peptide 372] | – | – | – | – | – | Dominance among individual peptide responses, rye (PBMC of coeliac patients): dominant |
| CC[C@H](C)[C@H](N)C(=O)O [Peptide I65] | 21 | 14 | 21 | 17 | – | – |
| C[C@@H](O)[C@H](N)C(=O)O [Peptide T65] | 19 | 55 | 19 | 28 | – | – |
| N[C@@H](Cc1c[nH]cn1)C(=O)O [Peptide H65] | 26 | – | 16 | 20 | – | Mean IFNγ ELISPOT response relative to the immunodominant epitope (Glu65) ([1]; A-gliadin 57-73 with the named amino acid at position 65, 50 μg/ml, 3 subjects, day 6, listed as Histidine): 8% |
| 90: Table 23 20mer, SEQ ID NO:196 (PQLPYPQPQLPYPQPQPFRP) [Peptide 90] | – | – | – | – | 87 (16) % | IFNg ELISpot response compared to P04722 77-93 QE85 (SEQ ID NO: 27): mean (SEM) [3]: 87 (16) %; Dominance among individual peptide responses, wheat (PBMC of coeliac patients): dominant |
| 91: Table 23 20mer, SEQ ID NO:197 (PQPFPPQLPYPQPQLPYPQP) [Peptide 91] | – | – | – | – | 89 (12) % | IFNg ELISpot response compared to P04722 77-93 QE85 (SEQ ID NO: 27): mean (SEM) [3]: 89 (12) %; Dominance among individual peptide responses, wheat (PBMC of coeliac patients): dominant |
| 370: Table 23 20mer, SEQ ID NO:476 (PQQQFLQPQQPFPQQPQQPY) [Peptide 370] | – | – | – | – | 11 (5) % | Dominance among individual peptide responses, rye (PBMC of coeliac patients): dominant |
| CC(C)C[C@H](N)C(=O)O [Peptide L65] | 16 | 33 | 26 | 20 | – | – |
| NCCCC[C@H](N)C(=O)O [Peptide K65] | 8 | – | 8 | 15 | – | Mean IFNγ ELISPOT response relative to the immunodominant epitope (Glu65) ([1]; listed as Lysine): 4% |
